How the values were obtained:
[1] = system: platelet deposition and thrombus formation on the stent surface; experiment: In vitro bovine blood loop model (anti-thrombotic activity); conditions: FIG. 12, cilostazol in sirolimus/cilostazol coatings
From the text: The anti-thrombotic efficacy of the above-described three configurations is illustrated in FIG. 12. FIG. 12 illustrates the anti-thrombotic properties of the sirolimus/cilostazol combination coatings described above in an in vitro bovine blood loop model. In the in vitro bovine blood loop model, fresh bovine blood is heparinized to adjust for acute clotting time (ACT) of about two hundred (200) seconds. The platelet content in the blood is labeled through the use of Indium 111. In the study, a stent is deployed in a silicone tube, which is part of a closed loop system for blood circulation. The heparinzed blood is circulated through the closed loop system by means of a circulating pump. Activated platelets, fibrin and thrombus builds up on a stent surface over time and reduces the flow rate of blood through the stented loop. The flow is stopped when the flow rate is reduced to fifty (50) percent of the starting value or at ninety (90) minutes if none of the tested stent reduces the flow by fifty (50) percent. The total radioactivity (In 111) on the stent surface is counted by a […] and normalized with the control unit, set as one hundred (100) percent in the chart. […]

[2] = In vitro release kinetics of sirolimus/cilostazol stent coatings; assay type: physicochemical
[3] = Porcine drug elution PK study of dual drug eluting coating (in vivo release); parameters: species or system pig; conditions: after eight (8) days of implantation, single layer configuration of FIG. 15 (FIG. 13)
From the text: Another critical parameter for the performance of the thrombus resistance of a device coated with cilostazol is the duration of the drug release from the coating. This is of particular significance in the two weeks after device implantation. In the porcine drug elution PK studies of the dual drug eluting coating, both cilostazol and sirolimus were slowly released from the coating, resulting in a sustained drug release profile. The purpose of the porcine PK study is to assess the local pharmacokinetics of a drug eluting stent at a given implantation time. Normally three stents are implanted in three different coronary arteries in a pig for a given time point and then retrieved for total drug recovery analysis. The stents are retrieved at predetermined time points; namely, 1, 3 and 8 days. The stents are extracted and the total amount of drug remaining on the stents is determined by analysis utilizing HPLC (high performance liquid chromatography) for total drug amount. The difference between the original amount of drug on the stent and the amount of drug retrieved at a given time represents the amount of drug released in that period. The continuous release of drug into surrounding arterial tissue is what prevents the neointimal growth and restenosis in the coronary artery. A normal plot represents the percentage of total drug released (%, y-axis) vs. time of implantation (day, x-axis). […]

[4] = In vivo release kinetics from dual drug reservoir stent, porcine coronary artery model; conditions: at thirty (30) days, 3.5×17 mm reservoir stent, PLGA75/25, in vivo (FIG. 18)
From the text: FIG. 18 graphically illustrates the release kinetic curves for sirolimus 1902 and cilostazol 1904 over a period of thirty (30) days from an in vivo release kinetics study. As illustrated, the release kinetics are similar for both drugs with approximately seventy (70) percent of both drugs being released from the stent at thirty (30) days (sirolimus being a little higher than the cilostazol). A 3.5×17 mm stent with reservoirs was utilized in the study. Each drug was placed individually in a reservoir to create an alternating pattern. The basic construct of each reservoir fill was a base (luminal side of the stent) comprising only polymer (PLGA75/25) and no drug, a drug matrix either comprising 120.4 micro grams of cilostazol and 197.1 micro grams of polymer (PLGA75/25) or 146.9 micro grams of sirolimus and 175.0 micro grams of polymer (PLGA75/25), and a cap comprising only polymer (PLGA75/25). The stent was placed in a standard porcine coronary artery model to evaluate the in vivo release kinetics and tissue concentration of both drugs released from the stent over time.

[5] = cited from earlier work

| Structure (SMILES) | thrombus formation [1] | drug release rate, 200 µg vs 100 µg BMA diffusion overcoat ([2]; configuration of FIG. 7 (200 µg BMA) compared with FIG. 9 (100 µg BMA), FIGS. 8 and 10) | in vitro release rate compared to the dual drug base coating ([2]; configuration of FIG. 7 vs FIG. 15) | in vitro release ([2]; single layer configuration of FIG. 15 (FIG. 14)) [%] | drug remained in the drug coating [3] [%] | drug released from the stent [4] [%] | solubility in water [5] |
| --- | --- | --- | --- | --- | --- | --- | --- |
| O=C1CCc2cc(OCCCCc3nnnn3C3CCCCC3)ccc2N1 [cilostazol, 6[4-(1-cyclohexyl-1H-tetrazol-5-yl)-butoxy]-3,4-dihydro-2-(1H)-quinolinone] | significantly reduces thrombus formation | comparatively slower | much faster rate | ~35 | ~80 | ~70 | relatively low solubility in water |
| CO[C@H]1C[C@@H]2CC[C@@H](C)[C@@](O)(O2)C(=O)C(=O)N2CCCC[C@H]2C(=O)O[C@H]([C@H](C)C[C@@H]2CC[C@@H](O)[C@H](OC)C2)CC(=O)[C@H](C)/C=C(\C)[C@@H](O)[C@@H](OC)C(=O)[C@H](C)C[C@H](C)/C=C/C=C/C=C/1C [sirolimus] | – | – | – | – | ~80 | ~70 | – |
